# Test results as given in ChEMBL document CHEMBL1142280, “Discovery of new small molecules that influence neuroblast cell migration from the subventricular zone” (2008).
# Activity calls are given as the source filed them. The rule behind the calls is not given here.
# Assays:
# [1] = species on record: Mus musculus; assay: (§1) Inhibition of mouse neuroblast cell migration from subventricular zone tissue explants at 63 uM after 48 hrs relative to control; assay type: functional
# [2] = species on record: Mus musculus; assay: Inhibition of mouse neuroblast cell migration from subventricular zone tissue explants at 67 uM after 48 hrs relative to control; assay type: functional
# [3] = Inhibition of mouse neuroblast cell migration from subventricular zone tissue explants at 139 uM after 48 hrs relative to control; assay type: functional
# [4] = species on record: Mus musculus; assay: Inhibition of mouse neuroblast cell migration from subventricular zone tissue explants at 13.9 uM after 48 hrs relative to control; assay type: functional
# [5] = Inhibition of mouse neuroblast cell migration from subventricular zone tissue explants at 123 uM after 48 hrs relative to control; assay type: functional
# [6] = species on record: Mus musculus; assay: Inhibition of mouse neuroblast cell migration from subventricular zone tissue explants at 12.3 uM after 48 hrs relative to control; assay type: functional
# [7] = Inhibition of mouse neuroblast cell migration from subventricular zone tissue explants at 224 uM after 48 hrs relative to control; assay type: functional
# [8] = species on record: Mus musculus; assay: Inhibition of mouse neuroblast cell migration from subventricular zone tissue explants at 22 uM after 48 hrs relative to control; assay type: functional
# [9] = Inhibition of mouse neuroblast cell migration from subventricular zone tissue explants at 154 uM after 48 hrs relative to control; assay type: functional
# [10] = Inhibition of mouse neuroblast cell migration from subventricular zone tissue explants at 223 uM after 48 hrs relative to control; assay type: functional
# [11] = as §1; assay type: functional
# [12] = species on record: Mus musculus; assay: Inhibition of mouse neuroblast cell migration from subventricular zone tissue explants at 100 uM after 48 hrs relative to control; assay type: functional
# [13] = Inhibition of mouse neuroblast cell migration from subventricular zone tissue explants at 250 uM after 48 hrs relative to control
# [14] = species on record: Mus musculus; assay: Reversal of inhibition of mouse neuroblast cell migration from subventricular zone tissue explants in presence of PR21; assay type: functional
# [15] = Inhibition of mouse neuroblast cell migration from subventricular zone tissue explants at 68 uM after 48 hrs relative to control; assay type: functional
# [16] = Inhibition of mouse neuroblast cell migration from subventricular zone tissue explants at 34 uM after 48 hrs relative to control; assay type: functional
# [17] = species on record: Mus musculus; assay: Inhibition of mouse neuroblast cell migration from subventricular zone tissue explants at 6.8 uM after 48 hrs relative to control; assay type: functional
# [18] = species on record: Mus musculus; assay: Inhibition of PR21-stimulated mouse neuroblast cell migration from subventricular zone tissue explants after 24 hrs; assay type: functional
# [19] = species on record: Mus musculus; assay: Inhibition of mouse neuroblast cell migration from subventricular zone tissue explants after 24 hrs; assay type: functional
structure (smiles),measurement,setting,value
C1CNCCNCCCN(CC2CCC(CN3CCCNCCNCCCNCC3)CC2)CCNC1 (configuration not stated),Activity,[1],inactive
C1CNCCNCCCN(CCCCN2CCCNCCNCCCNCC2)CCNC1,Activity,[2],inactive
O=C(NCCSSCCNC(=O)c1ccccc1)c1ccccc1,inhibition at 139 µM,[3],100%
same,Activity,[4],inactive
c1cc(CN2CCCNCCNCCCNCC2)ccc1CN1CCCNCCNCCCNCC1,Activity,[1],inactive
c1ccc(CNCCSSCCNCc2ccccc2)cc1,inhibition at 123 µM,[5],100%
same,Activity,[6],inactive
C1CNCCNCCNCCN1,inhibition at 224 µM,[7],19%
same,Activity,[8],inactive
O=C(NCCCCCCNC(=O)c1ccccc1)c1ccccc1,inhibition at 154 µM,[9],50%
NCCSSCCN [CYSTAMINE],inhibition at 223 µM,[10],33%
c1cc(CN2CCCNCCNCCCNCC2)cc(CN2CCCNCCNCCCNCC2)c1,inhibition at 63 µM,[11],10%
CC(CNCCCCCN)SSC(C)CNCCCCCN (configuration not stated),Activity,[12],inactive
C1CNCCNCCCNCCNC1,inhibition at 250 µM,[13],20%
c1ccc(CN2CCCNCCNCCCNCC2)c(CN2CCCNCCNCCCNCC2)c1,Activity,[1],inactive
COc1ccccc1CNCCCCCCNCCSSCCNCCCCCCNCc1ccccc1OC [BENEXTRAMINE],Activity,[14],Active
same,inhibition at 68 µM,[15],100%
same,inhibition at 34 µM,[16],45%
same,Activity,[17],inactive
same,Activity,[18],Active
same,Activity,[19],Active
O=C(c1ccc(C(=O)N2CCCNCCNCCCNCC2)cc1)N1CCCNCCNCCCNCC1,Activity,[2],inactive
